In patent US20050014817A1, “Fluorothiophene derivatives, process for preparing them and pharmaceutical compositions containing them” (Pfizer Inc, priority 2003, published 2005):

Experiments:
[1] = molecular target: MMP-12 (Homo sapiens, UniProt P39900); experiment: In vitro inhibition of MMP-12 proteolysis of fluorigenic peptide FP-1; assay type: biochemical; details: FP-1 substrate 10 μM, 20 minutes at room temperature
Description: In Vitro Evaluation of the Inhibitory Activity of the Compounds of the Invention on MMP-12:
(§1) The inhibitory activity of the compounds of formula (I) on metalloprotease-12 is evaluated by testing the capacity of the compounds of the invention to inhibit the proteolysis of a peptide that is an MMP-12 substrate.
The substrate peptide used (fluorigenic peptide-1: FP-1) in the test has the following sequence: Mca-Pro-Leu-Gly-Leu-Dap(Dnp)-Ala-Arg-NH2.
The inhibitory activity of a compound of formula (I) is expressed as the IC50 value, which represents the concentration of inhibitor for which a 50% inhibition of the metalloprotease is observed.
(§2) The reaction starts with the sequential addition of 41 μl of FP-1 substrate (final concentration of 10 μM) to a buffer solution of 50 mM of Tris-HCl and 10 mM of CaCl2, and containing 5 mM of hydroxamic acid and 5 μl of the enzyme diluted in a 0.005% Brij-35 buffer solution. The microplates are incubated for 20 minutes at room temperature.
(§3) The compounds of the invention are tested at concentrations ranging from 0.3 to 30 μM.
(§4) The measurement of the amount of proteolysis of the peptide substrate is monitored by means of a measurement of absorbance at 405 nm using a microplate spectrophotometer, at room temperature. The IC50 values are calculated from curves in which the percentage of the catalytic activity relative to the control is represented on the x-axis and the inhibitor concentration is represented on the y-axis.

[2] = molecular target: MMP-13 (Homo sapiens, UniProt P45452); experiment: MMP-12 test adapted to MMP-13; assay type: biochemical
Description: as §1, §2, §3, §4
The test described above for the inhibition of MMP-12 is adapted and used to determine the capacity of the compounds of formula (I) to inhibit the metalloproteases MMP-1, MMP-2, MMP-3, MMP-7, MMP-9, MMP-13 and MMP-14.

MMP-12, sequence (P39900 106-470): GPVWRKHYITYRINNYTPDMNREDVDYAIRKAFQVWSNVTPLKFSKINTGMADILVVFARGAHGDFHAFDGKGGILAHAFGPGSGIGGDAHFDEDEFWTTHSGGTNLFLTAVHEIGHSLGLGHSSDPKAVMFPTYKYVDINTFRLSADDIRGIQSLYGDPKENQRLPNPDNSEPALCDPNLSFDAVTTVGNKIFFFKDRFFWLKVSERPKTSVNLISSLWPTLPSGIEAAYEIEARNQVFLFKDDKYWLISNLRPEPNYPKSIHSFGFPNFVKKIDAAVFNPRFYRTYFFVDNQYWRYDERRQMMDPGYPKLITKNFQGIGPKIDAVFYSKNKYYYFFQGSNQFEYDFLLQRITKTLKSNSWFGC

For `CC(=O)c1ccc(-c2ccc(-c3cc(C(=O)N[C@H](CC(=O)O)c4ccccc4)sc3F)cc2)cc1` [Example 3, 3-(R)-Phenyl-3-({5-fluoro-4-[4-(4-acetylphenyl)phenyl]thien-2 yl}carboxamido)-propanoic Acid], the IC50 [1] was 0.024 µM and the IC50 [2] was 0.085 µM.

`O=C(NC[C@H]1CC[C@H](C(=O)O)CC1)c1cc(-c2ccc(OC(F)(F)F)cc2)c(F)s1` [Example 1, 4-({[5-Fluoro-4-(4-trifluoromethoxyphenyl)thien-2-yl]carboxamido}-methyl)cyclohexanecarboxylic Acid] was tested, and the IC50 [1] was 0.14 µM and the IC50 [2] was 2.8 µM.

With `CC(=O)c1ccc(-c2ccc(-c3cc(C(=O)NC[C@H]4CC[C@H](C(=O)O)CC4)sc3F)cc2)cc1` [Example 2, trans4-({[5-Fluoro-4-(4-[4-acetylphenyl]phenyl)thien-2-yl]carboxamido}methyl)cyclohexanecarboxylic Acid] the IC50 [1] was 0.007 µM and the IC50 [2] was 0.038 µM.
